Consider 29 compounds from US9247759B2, “Identification of human T2R receptors that respond to bitter compounds that elicit the bitter taste in compositions, and the use thereof in assays to identify compounds that inhibit (block) bitter taste in compositions and use thereof” (SENOMYX, INC., priority 2007, dated 2016).

The structures appear in SMILES notation. Like-named read-outs stand apart in the source and are kept apart here.

In the assay the target is hT2R8 (Homo sapiens (Human), UniProt Q9NYW2). The assay can be described thus: hT2R8 antagonist high-throughput FLIPR assay, stable cell line with G16g44, agonist andrographolide. The class given is cell-based. Put shortly: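 Antagonist screen: compounds co-applied with agonist andrographolide at 200 μM, a dose giving 70–80% of maximal hT2R8 activation. Fluorescence measured by FLIPR in a stable HEK293 line expressing both hT2R8 and the promiscuous G16g44 protein.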
Sequence of hT2R8 (Q9NYW2 whole entry): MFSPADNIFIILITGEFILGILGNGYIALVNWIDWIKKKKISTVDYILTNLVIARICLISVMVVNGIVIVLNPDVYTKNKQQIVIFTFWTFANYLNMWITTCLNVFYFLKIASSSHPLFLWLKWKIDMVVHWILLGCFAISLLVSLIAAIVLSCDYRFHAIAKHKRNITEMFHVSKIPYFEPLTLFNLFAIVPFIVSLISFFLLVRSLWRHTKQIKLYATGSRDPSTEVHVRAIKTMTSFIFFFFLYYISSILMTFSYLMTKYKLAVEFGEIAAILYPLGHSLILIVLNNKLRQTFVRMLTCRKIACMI

Where [1] appears, read: read-out: IC50 on hT2R8 bitter receptor.
The mark [2] stands for this setting: table after Example 10-97, read-out: hT2R8 IC50.
Setting [3] is: unit uM, read-out: IC50 on hT2R08 bitter receptor.

Take `COc1cccc(CN2CC(=O)N(c3cnn(Cc4c(C)noc4C)c3)C2=O)c1` [Example 10-6, 3-(1-((3,5-dimethylisoxazol-4-yl)methyl)-1H-pyrazol-4-yl)-1-(3-methoxybenzyl)imidazolidine-2,4-dione]: the IC50 (in general, the concentration that gives 50% inhibition) was 0.07 µM under setting [1] and 0.073 µM under setting [2].

Take `COC(=O)c1cccc(CN2CC(=O)N(c3cnn(Cc4c(C)noc4C)c3)C2=O)c1` [Example 10-7, methyl 3-((3-(1-((3,5-dimethylisoxazol-4-yl)methyl)-1H-pyrazol-4-yl)-2,4-dioxoimidazolidin-1-yl)methyl)benzoate]: the IC50 reads like this: under setting [1], 0.09 µM; under setting [2], 0.102 µM.

Consider `Cc1noc(C)c1Cn1cc(N2C(=O)CN(Cc3cccc(C(=O)O)c3)C2=O)cn1` [Example 10-8, 3-((3-(1-((3,5-dimethylisoxazol-4-yl)methyl)-1H-pyrazol-4-yl)-2,4-dioxoimidazolidin-1-yl)methyl)benzoic acid], for which the IC50 by setting is: under setting [1], 1.8 µM; under setting [2], 1.8 µM.

As to `CNC(=O)c1cccc(CN2CC(=O)N(c3cnn(Cc4c(C)noc4C)c3)C2=O)c1` [Example 10-9, 3-((3-(1-((3,5-dimethylisoxazol-4-yl)methyl)-1H-pyrazol-4-yl)-2,4-dioxoimidazolidin-1-yl)methyl)-N-methylbenzamide], the IC50 under setting [1] is 0.14 µM and the IC50 under setting [2] amounted to 0.141 µM.

With `Cc1noc(C)c1Cn1cc(N2C(=O)CN(Cc3ccccc3O)C2=O)cn1` [Example 10-11, 3-(1-((3,5-dimethylisoxazol-4-yl)methyl)-1H-pyrazol-4-yl)-1-(2-hydroxybenzyl)imidazolidine-2,4-dione], the IC50 was 0.069 µM under setting [2] and 0.07 µM under setting [3].

`Cc1noc(C)c1Cn1cc(N2C(=O)CN(Cc3ccc(O)cc3)C2=O)cn1` [Example 10-12, 3-(1-((3,5-dimethylisoxazol-4-yl)methyl)-1H-pyrazol-4-yl)-1-(4-hydroxybenzyl)imidazolidine-2,4-dione]: the IC50 runs as follows: under setting [2], 0.043 µM; under setting [3], 0.06 µM.

As for `COc1ccc(CN2CC(=O)N(c3cnn(Cc4c(C)noc4C)c3)C2=O)cc1O` [Example 10-13, 3-(1-((3,5-dimethylisoxazol-4-yl)methyl)-1H-pyrazol-4-yl)-1-(3-hydroxy-4-methoxybenzyl)imidazolidine-2,4-dione], the IC50 came out at 0.087 µM under setting [2] and 0.1 µM under setting [3].

`COCCOc1cccc(CN2CC(=O)N(c3cnn(Cc4c(C)noc4C)c3)C2=O)c1` [Example 10-14, 3-(1-((3,5-dimethylisoxazol-4-yl)methyl)-1H-pyrazol-4-yl)-1-(3-(2-methoxyethoxy)benzyl)imidazolidine-2,4-dione]: the IC50 runs as follows: under setting [2], 0.071 µM; under setting [3], 0.07 µM.

For the compound `CSc1ccccc1CN1CC(=O)N(c2cnn(Cc3c(C)noc3C)c2)C1=O` [Example 10-15, 3-(1-((3,5-dimethylisoxazol-4-yl)methyl)-1H-pyrazol-4-yl)-1-(2-(methylthio)benzyl)imidazolidine-2,4-dione], the IC50 under setting [2] was determined as 0.016 µM and the IC50 under setting [3] came out at 0.03 µM.

For `COCCOc1ccccc1CN1CC(=O)N(c2cnn(Cc3c(C)noc3C)c2)C1=O` [Example 10-16, 3-(1-((3,5-dimethylisoxazol-4-yl)methyl)-1H-pyrazol-4-yl)-1-(2-(2-methoxyethoxy)benzyl)imidazolidine-2,4-dione], the IC50 was 0.131 µM under setting [2] and 0.1 µM under setting [3].

As to `Cc1noc(C)c1Cn1cc(N2C(=O)CN(Cc3ccccc3[S+](C)[O-])C2=O)cn1` (stereo not shown) [Example 10-17, 33-(1-((3,5-dimethylisoxazol-4-yl)methyl)-1H-pyrazol-4-yl)-1-(2-(methylsulfinyl)benzyl)imidazolidine-2,4-dione], the IC50 turned out to be 0.412 µM under setting [2] and 0.4 µM under setting [3].

Turning to `COc1ccccc1CN1CC(=O)N(c2cnn(Cc3c(C)noc3C)c2)C1=O` [Example 10-18, 3-(1-((3,5-dimethylisoxazol-4-yl)methyl)-1H-pyrazol-4-yl)-1-(2-methoxybenzyl)imidazolidine-2,4-dione], the IC50 reads like this: under setting [2], 0.06 µM; under setting [3], 0.06 µM.

Turning to `Cc1noc(C)c1Cn1cc(N2C(=O)CN(Cc3ccccc3C#N)C2=O)cn1` [Example 10-19, 2-((3-(1-((3,5-dimethylisoxazol-4-yl)methyl)-1H-pyrazol-4-yl)-2,4-dioxoimidazolidin-1-yl)methyl)benzonitrile], the IC50 by setting is: under setting [1], 0.5 µM; under setting [2], 0.55 µM.

In the case of `Cc1ccccc1CN1CC(=O)N(c2cnn(Cc3c(C)noc3C)c2)C1=O` [Example 10-20, 3-(1-((3,5-dimethylisoxazol-4-yl)methyl)-1H-pyrazol-4-yl)-1-(2-methylbenzyl)imidazolidine-2,4-dione], the IC50 is, setting by setting: under setting [2], 0.133 µM; under setting [3], 0.1 µM.

On to `Cc1noc(C)c1Cn1cc(N2C(=O)CN(Cc3ccccc3F)C2=O)cn1` [Example 10-21, 3-(1-((3,5-dimethylisoxazol-4-yl)methyl)-1H-pyrazol-4-yl)-1-(2-fluorobenzyl)imidazolidine-2,4-dione], for which the IC50 was 0.09 µM under setting [2] and 0.08 µM under setting [3].

On to `Cc1noc(C)c1Cn1cc(N2C(=O)CN(Cc3ccccc3C(F)(F)F)C2=O)cn1` [Example 10-22, 3-(1-((3,5-dimethylisoxazol-4-yl)methyl)-1H-pyrazol-4-yl)-1-(2-(trifluoromethyl)benzyl)imidazolidine-2,4-dione], for which the IC50 is, setting by setting: under setting [2], 0.221 µM; under setting [3], 0.2 µM.

Turning to `Cc1noc(C)c1Cn1cc(N2C(=O)CN(Cc3ccccc3[N+](=O)[O-])C2=O)cn1` [Example 10-23, 3-(1-((3,5-dimethylisoxazol-4-yl)methyl)-1H-pyrazol-4-yl)-1-(2-nitrobenzyl)imidazolidine-2,4-dione], the IC50 runs as follows: under setting [2], 0.081 µM; under setting [3], 0.07 µM.

Regarding `Cc1noc(C)c1Cn1cc(N2C(=O)CN(Cc3cccc(C=O)c3)C2=O)cn1` [Example 10-24, 3-((3-(1-((3,5-dimethylisoxazol-4-yl)methyl)-1H-pyrazol-4-yl)-2,4-dioxoimidazolidin-1-yl)methyl)benzaldehyde], the IC50 runs as follows: under setting [2], 0.201 µM; under setting [3], 0.2 µM.

In the case of `Cc1noc(C)c1Cn1cc(N2C(=O)CN(Cc3cccc(C#N)c3)C2=O)cn1` [Example 10-25, 3-((3-(1-((3,5-dimethylisoxazol-4-yl)methyl)-1H-pyrazol-4-yl)-2,4-dioxoimidazolidin-1-yl)methyl)benzonitrile], the IC50 under setting [2] was 1 µM and the IC50 under setting [3] was 1 µM.

Turning to `Cc1cccc(CN2CC(=O)N(c3cnn(Cc4c(C)noc4C)c3)C2=O)c1` [Example 10-26, 3-(1-((3,5-dimethylisoxazol-4-yl)methyl)-1H-pyrazol-4-yl)-1-(3-methylbenzyl)imidazolidine-2,4-dione], the IC50 reads like this: under setting [2], 0.019 µM; under setting [3], 0.02 µM.

On to `Cc1noc(C)c1Cn1cc(N2C(=O)CN(Cc3cccc(F)c3)C2=O)cn1` [Example 10-27, 3-(1-((3,5-dimethylisoxazol-4-yl)methyl)-1H-pyrazol-4-yl)-1-(3-fluorobenzyl)imidazolidine-2,4-dione], for which the IC50 by setting is: under setting [2], 0.058 µM; under setting [3], 0.06 µM.

For `Cc1noc(C)c1Cn1cc(N2C(=O)CN(Cc3cc(C)n(C)n3)C2=O)cn1` [Example 10-28, 1-((1,5-dimethyl-1H-pyrazol-3-yl)methyl)-3-(1-((3,5-dimethylisoxazol-4-yl)methyl)-1H-pyrazol-4-yl) imidazolidine-2,4-dione], the IC50 came to 0.322 µM under setting [2] and 0.3 µM under setting [3].

On to `COc1ccc(CN2CC(=O)N(c3cnn(Cc4c(C)noc4C)c3)C2=O)cc1` [Example 10-29, 3-(1-((3,5-dimethylisoxazol-4-yl)methyl)-1H-pyrazol-4-yl)-1-(4-methoxybenzyl)imidazolidine-2,4-dione], for which the IC50 runs as follows: under setting [2], 3.12 µM; under setting [3], 0.07 µM.

For the compound `Cc1ccc(CN2CC(=O)N(c3cnn(Cc4c(C)noc4C)c3)C2=O)cc1` [Example 10-30, 3-(1-((3,5-dimethylisoxazol-4-yl)methyl)-1H-pyrazol-4-yl)-1-(4-methylbenzyl)imidazolidine-2,4-dione], the IC50 is, setting by setting: under setting [2], 0.065 µM; under setting [3], 0.06 µM.

In the case of `Cc1noc(C)c1Cn1cc(N2C(=O)CN(Cc3ccc(F)cc3)C2=O)cn1` [Example 10-31, 3-(1-((3,5-dimethylisoxazol-4-yl)methyl)-1H-pyrazol-4-yl)-1-(4-fluorobenzyl)imidazolidine-2,4-dione], the IC50 turned out to be 0.045 µM under setting [2] and 0.05 µM under setting [3].

Turning to `Cc1noc(C)c1Cn1cc(N2C(=O)CN(Cc3ccc(C#N)cc3)C2=O)cn1` [Example 10-32, 4-((3-(1-((3,5-dimethylisoxazol-4-yl)methyl)-1H-pyrazol-4-yl)-2,4-dioxoimidazolidin-1-yl)methyl)benzonitrile], the IC50 stood at 0.048 µM under setting [2] and 0.05 µM under setting [3].

Consider `Cc1noc(C)c1Cn1cc(N2C(=O)CN(Cc3cccc(CO)c3)C2=O)cn1` [Example 10-33, 3-(1-((3,5-dimethylisoxazol-4-yl)methyl)-1H-pyrazol-4-yl)-1-(3-(hydroxymethyl)benzyl)imidazolidine-2,4-dione], for which the IC50 is, setting by setting: under setting [2], 0.322 µM; under setting [3], 0.3 µM.

On to `Cc1noc(C)c1Cn1cc(N2C(=O)CN(Cc3ccccc3N)C2=O)cn1` [Example 10-34, 1-(2-aminobenzyl)-3-(1-((3,5-dimethylisoxazol-4-yl)methyl)-1H-pyrazol-4-yl)imidazolidine-2,4-dione], for which the IC50 runs as follows: under setting [2], 0.163 µM; under setting [3], 0.02 µM.

`COc1ccc(CN2CC(=O)N(c3cnn(Cc4c(C)noc4C)c3)C2=O)cc1OC` [Example 10-35, 1-(3,4-dimethoxybenzyl)-3-(1-((3,5-dimethylisoxazol-4-yl)methyl)-1H-pyrazol-4-yl)imidazolidine-2,4-dione]: the IC50 is, setting by setting: under setting [2], 0.051 µM; under setting [3], 0.06 µM.
